Where two headings read alike, the source gives them in different places.
Legend:
Assay type in all cases: cell-based
[1] = molecular target: T1, 168 GPCRs (Homo sapiens, UniProt P41231); details: P2RY2
T1 construct: host or cells: PathHunter cell lines

[2] = molecular target: T2, 168 GPCRs (Homo sapiens, UniProt Q96P65)
T2 construct: host or cells: PathHunter cell lines
T2 sequence (Q96P65 1-431): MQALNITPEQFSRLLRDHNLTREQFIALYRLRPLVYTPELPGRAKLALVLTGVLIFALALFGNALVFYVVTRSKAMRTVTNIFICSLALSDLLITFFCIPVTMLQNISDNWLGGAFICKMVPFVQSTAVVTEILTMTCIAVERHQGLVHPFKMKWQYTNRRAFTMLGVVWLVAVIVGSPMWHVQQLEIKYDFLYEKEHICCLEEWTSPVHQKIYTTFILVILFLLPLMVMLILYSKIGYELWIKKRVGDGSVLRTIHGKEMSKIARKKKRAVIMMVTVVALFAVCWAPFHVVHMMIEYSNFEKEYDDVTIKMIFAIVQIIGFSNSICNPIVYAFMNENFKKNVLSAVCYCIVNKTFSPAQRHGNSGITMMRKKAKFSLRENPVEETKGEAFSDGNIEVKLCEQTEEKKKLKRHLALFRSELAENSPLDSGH

[3] = molecular target: T3, 168 GPCRs (Homo sapiens, UniProt P30559); details: OXTR
T3 construct: host or cells: PathHunter cell lines
T3 sequence (P30559 1-389): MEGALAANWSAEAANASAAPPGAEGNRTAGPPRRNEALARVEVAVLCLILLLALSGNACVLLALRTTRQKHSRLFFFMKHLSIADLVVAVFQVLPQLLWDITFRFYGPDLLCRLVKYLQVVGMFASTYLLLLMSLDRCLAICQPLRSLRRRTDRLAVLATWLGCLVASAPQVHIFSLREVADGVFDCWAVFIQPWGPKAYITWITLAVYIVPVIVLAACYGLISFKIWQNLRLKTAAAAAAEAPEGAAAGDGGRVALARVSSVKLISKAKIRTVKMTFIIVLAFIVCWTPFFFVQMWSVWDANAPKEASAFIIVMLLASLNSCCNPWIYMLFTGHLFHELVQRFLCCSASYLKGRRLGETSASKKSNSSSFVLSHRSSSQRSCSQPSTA

[4] = molecular target: T4, 168 GPCRs (Homo sapiens, UniProt P16473); details: TSHR(L)
T4 construct: host or cells: PathHunter cell lines
T4 sequence (P16473 21-764): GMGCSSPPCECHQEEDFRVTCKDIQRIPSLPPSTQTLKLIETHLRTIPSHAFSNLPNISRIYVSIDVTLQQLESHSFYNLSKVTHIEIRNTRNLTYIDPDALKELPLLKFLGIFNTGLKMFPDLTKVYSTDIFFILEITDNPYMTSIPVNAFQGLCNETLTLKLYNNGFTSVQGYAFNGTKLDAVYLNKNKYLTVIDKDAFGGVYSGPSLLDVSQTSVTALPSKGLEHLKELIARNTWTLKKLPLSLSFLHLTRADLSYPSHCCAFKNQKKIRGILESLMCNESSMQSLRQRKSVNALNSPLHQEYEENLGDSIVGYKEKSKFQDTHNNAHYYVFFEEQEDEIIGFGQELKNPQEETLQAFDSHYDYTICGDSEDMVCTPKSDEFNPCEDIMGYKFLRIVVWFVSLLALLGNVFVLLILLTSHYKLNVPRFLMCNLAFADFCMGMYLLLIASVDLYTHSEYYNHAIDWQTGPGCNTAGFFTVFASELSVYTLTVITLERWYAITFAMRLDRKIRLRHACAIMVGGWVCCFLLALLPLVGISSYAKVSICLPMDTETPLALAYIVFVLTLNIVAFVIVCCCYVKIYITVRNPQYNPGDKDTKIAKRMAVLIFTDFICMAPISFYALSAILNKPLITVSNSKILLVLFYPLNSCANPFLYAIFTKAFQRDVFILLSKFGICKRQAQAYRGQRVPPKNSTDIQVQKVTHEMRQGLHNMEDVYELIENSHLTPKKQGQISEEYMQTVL

[5] = molecular target: T5, 168 GPCRs (Homo sapiens, UniProt Q9HB89); details: NMU1R
T5 construct: host or cells: PathHunter cell lines
T5 sequence (Q9HB89 1-426): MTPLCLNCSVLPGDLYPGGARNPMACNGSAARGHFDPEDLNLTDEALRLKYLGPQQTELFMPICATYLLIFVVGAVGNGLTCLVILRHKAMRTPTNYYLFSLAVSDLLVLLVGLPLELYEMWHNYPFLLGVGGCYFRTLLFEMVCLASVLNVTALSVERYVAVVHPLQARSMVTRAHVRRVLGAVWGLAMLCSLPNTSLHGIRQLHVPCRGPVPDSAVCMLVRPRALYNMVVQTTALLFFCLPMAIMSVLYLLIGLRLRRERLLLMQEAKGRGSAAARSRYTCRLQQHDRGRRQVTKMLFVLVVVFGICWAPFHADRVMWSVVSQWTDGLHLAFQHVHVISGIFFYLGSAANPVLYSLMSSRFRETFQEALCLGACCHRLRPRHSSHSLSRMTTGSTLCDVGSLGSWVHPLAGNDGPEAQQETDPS

[6] = molecular target: T6, 168 GPCRs (Homo sapiens, UniProt Q15722); details: LTB4R
T6 construct: host or cells: PathHunter cell lines
T6 sequence (Q15722 whole entry): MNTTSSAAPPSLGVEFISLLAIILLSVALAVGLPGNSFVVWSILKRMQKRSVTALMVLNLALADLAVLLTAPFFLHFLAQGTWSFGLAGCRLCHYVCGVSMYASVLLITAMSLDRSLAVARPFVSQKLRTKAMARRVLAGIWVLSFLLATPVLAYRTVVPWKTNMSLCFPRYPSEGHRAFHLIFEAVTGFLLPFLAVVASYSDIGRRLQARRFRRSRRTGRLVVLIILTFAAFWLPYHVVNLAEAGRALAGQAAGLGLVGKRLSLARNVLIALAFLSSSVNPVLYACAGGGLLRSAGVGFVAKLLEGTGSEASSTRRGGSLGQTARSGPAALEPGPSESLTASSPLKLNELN

[7] = molecular target: T7, 168 GPCRs (Homo sapiens, UniProt P25025)
T7 construct: host or cells: PathHunter cell lines
T7 sequence (P25025 1-360): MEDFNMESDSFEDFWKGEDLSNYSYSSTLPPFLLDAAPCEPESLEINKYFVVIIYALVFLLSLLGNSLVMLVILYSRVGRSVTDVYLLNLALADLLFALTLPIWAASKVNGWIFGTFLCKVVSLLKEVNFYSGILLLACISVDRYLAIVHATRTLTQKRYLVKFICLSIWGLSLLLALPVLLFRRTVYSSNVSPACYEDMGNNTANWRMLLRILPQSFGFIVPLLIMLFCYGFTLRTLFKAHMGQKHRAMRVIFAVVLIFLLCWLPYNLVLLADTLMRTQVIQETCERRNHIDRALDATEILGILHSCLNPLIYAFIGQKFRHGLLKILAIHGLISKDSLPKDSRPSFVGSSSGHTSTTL

[8] = molecular target: T8, 168 GPCRs (Homo sapiens, UniProt P08588)
T8 construct: host or cells: PathHunter cell lines
T8 sequence (P08588 whole entry): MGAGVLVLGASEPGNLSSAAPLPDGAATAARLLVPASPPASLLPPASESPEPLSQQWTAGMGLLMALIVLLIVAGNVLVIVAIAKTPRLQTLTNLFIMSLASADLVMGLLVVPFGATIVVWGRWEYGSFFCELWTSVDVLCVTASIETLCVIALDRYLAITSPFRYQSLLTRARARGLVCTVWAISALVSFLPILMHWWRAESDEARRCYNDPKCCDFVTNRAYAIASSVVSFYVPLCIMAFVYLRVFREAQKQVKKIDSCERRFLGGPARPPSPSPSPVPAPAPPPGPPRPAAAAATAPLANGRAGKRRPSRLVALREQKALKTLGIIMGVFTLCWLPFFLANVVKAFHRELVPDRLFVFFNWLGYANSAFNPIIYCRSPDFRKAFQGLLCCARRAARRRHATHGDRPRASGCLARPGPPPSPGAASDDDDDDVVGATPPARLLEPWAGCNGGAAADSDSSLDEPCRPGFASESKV

T1 sequence (P41231 whole entry): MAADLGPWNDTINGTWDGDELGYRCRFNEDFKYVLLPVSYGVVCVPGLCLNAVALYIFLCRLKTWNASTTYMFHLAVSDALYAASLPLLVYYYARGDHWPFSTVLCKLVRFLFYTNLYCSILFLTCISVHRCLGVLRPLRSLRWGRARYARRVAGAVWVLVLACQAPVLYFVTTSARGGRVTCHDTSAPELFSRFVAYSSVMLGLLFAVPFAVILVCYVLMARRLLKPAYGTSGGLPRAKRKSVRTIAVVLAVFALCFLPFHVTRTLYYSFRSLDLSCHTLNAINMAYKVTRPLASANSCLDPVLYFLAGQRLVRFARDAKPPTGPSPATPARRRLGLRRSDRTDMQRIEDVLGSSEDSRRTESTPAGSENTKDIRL

SMILES	% Agonist Activity ([1]; Conc 1 uM) [%]	% Antagonist Activity ([1]; Conc 1 uM) [%]	% Agonist Activity ([1]; Conc 10 uM) [%]	% Antagonist Activity ([1]; Conc 10 uM) [%]	% Agonist Activity ([2]; GPR103, 1 uM) [%]	% Antagonist Activity ([2]; GPR103, 1 uM) [%]	% Agonist Activity ([2]; GPR103, 10 uM) [%]	% Antagonist Activity ([2]; GPR103, 10 uM) [%]	% Agonist Activity ([3]; Conc 1 uM) [%]	% Antagonist Activity ([3]; Conc 1 uM) [%]	% Agonist Activity ([3]; Conc 10 uM) [%]	% Antagonist Activity ([3]; Conc 10 uM) [%]	% Agonist Activity ([4]; Conc 1 uM) [%]	% Antagonist Activity ([4]; Conc 1 uM) [%]	% Agonist Activity ([4]; Conc 10 uM) [%]	% Antagonist Activity ([4]; Conc 10 uM) [%]	% Agonist Activity ([5]; 1 uM) [%]	% Antagonist Activity ([5]; 1 uM) [%]	% Agonist Activity ([5]; 10 uM) [%]	% Antagonist Activity ([5]; 10 uM) [%]	also measured
CNC(C)C(=O)c1ccc2c(c1)OCO2 (stereo not shown) [methylone]	-2.1	5.4	-2.7	1.8	0.8	4.1	3.1	7	-0.6	12.7	-0.5	6.9	-1.2	6.1	0.7	-6.6	1.3	-6.7	2	-9.3	% Agonist Activity ([6]; 1 uM): -0.3%; % Antagonist Activity ([6]; 1 uM): 3.5%; % Agonist Activity ([6]; 10 uM): -0.8%; % Antagonist Activity ([6]; 10 uM): -5.2%; % Agonist Activity ([7]; CXCR2, 1 uM): -0.2%; % Antagonist Activity ([7]; CXCR2, 1 uM): -7.6%; % Agonist Activity ([7]; CXCR2, 10 uM): -2.6%; % Antagonist Activity ([7]; CXCR2, 10 uM): -1%; % Agonist Activity ([8]; ADRB1, 1 uM): -1.7%; % Antagonist Activity ([8]; ADRB1, 1 uM): -0.8%; % Agonist Activity ([8]; ADRB1, 10 uM): -1.4%; % Antagonist Activity ([8]; ADRB1, 10 uM): -1.2%
CNC(C)Cc1ccc2c(c1)OCO2 (stereo not shown) [MDMA, 3,4-Methylenedioxy methamphetamine, reference compound]	6.6	11.5	7.8	9.6	-4.2	-15.2	-6.5	-17.1	-0.2	3.7	0.6	8.2	-0.6	-8	2.8	-5	0	-3.7	-0.1	6.8	% Agonist Activity ([6]; 1 uM): 0.5%; % Antagonist Activity ([6]; 1 uM): 8.9%; % Agonist Activity ([6]; 10 uM): 0.5%; % Antagonist Activity ([6]; 10 uM): 11.3%; % Agonist Activity ([7]; CXCR2, 1 uM): -0.9%; % Antagonist Activity ([7]; CXCR2, 1 uM): 12.8%; % Agonist Activity ([7]; CXCR2, 10 uM): 2.2%; % Antagonist Activity ([7]; CXCR2, 10 uM): 14.6%; % Agonist Activity ([8]; ADRB1, 1 uM): 0.6%; % Antagonist Activity ([8]; ADRB1, 1 uM): 2%; % Agonist Activity ([8]; ADRB1, 10 uM): 0.5%; % Antagonist Activity ([8]; ADRB1, 10 uM): 1.9%
